From US6353119B1, “Preparation of 3-substituted-4-arylquinolin-2-one derivatives” (Bristol-Myers Squibb Company, priority 1999, dated 2002)

Tests used:
[1] = tested on: cloned mammalian (mSlo or hSlo) BK channels heterologously expressed in Xenopus oocytes; assay: BK-mediated outward current in Xenopus oocytes, two-electrode voltage clamp; assay type: cell-based, Xenopus oocyte; settings: at 20 μM; IBTX-sensitive current; at least 5 oocytes
Protocol: The ability of compounds described in the present invention to open BK channels and increase whole-cell outward (K^+) BK-mediated currents was assessed under voltage-clamp conditions by determining their ability to increase cloned mammalian (mSlo or hSlo) BK-mediated outward current heterologously expressed in Xenopus oocytes [Butler, A., et al., Science, 261: 221-224 (1993); and Dworetzky, S. I., et al., Mol. Brain Res., 27: 189-193 (1994)]. The two BK constructs employed represent nearly structurally identical homologous proteins, and have proven to be pharmacologically identical in our tests. To isolate BK current from native (background, non-BK) current, the specific and potent BK channel-blocking toxin iberiotoxin (IBTX) [Galvez, A., et al., J. Biol. Chem., 265: 11083-11090 (1990)] was employed at a supramaximal concentration (50 nM). The relative contribution of BK channels current to total outward current was determined by subtraction of the current remaining in the presence of IBTX (non-BK current) from the current profiles obtained in all other experimental conditions (control, drug, and wash). […] All compounds were tested in at least 5 oocytes and are reported at the single concentration of 20 μM; the effect of the selected compounds of Formula I on BK current was expressed as the percent of control IBTX-sensitive current and is listed in Table 1. […]

[2] = tested on: permanent MCAO focal stroke model; assay: Permanent focal ischemia, middle cerebral artery occlusion (MCAO) model; assay type: in vivo, spontaneously hypertensive rat; settings: 0.003 mg/kg i.v. single bolus 2 hours after MCAO; infarct measured 24 hours after MCAO; vs vehicle-treated control
Description: To determine the ability of these compounds to reduce cell loss resulting from neuronal ischemia, a standard rodent model of permanent focal ischemia, involving occlusion of the middle cerebral artery in the spontaneously hypertensive rat (middle cerebral artery occlusion (MCAO) model) was employed [Tamura, A., et al., Journal of Cerebral Blood Flow and Metabolism, Volume 1, 53-60, (1981)]. Selected compounds have been evaluated in the focal stroke model involving permanent MCAO in the spontaneously hypertensive rat. This procedure results in a reliably large neocortical infarct volume that is measured by means of vital dye exclusion in serial slices through the brain 24 hours after MCAO. In the present test, compounds were administered using an intravenous route of administration at 2 hours after occlusion.

[3] = tested on: ICP/BP responses elicited by stimulation of the cavernous nerve; assay: In vivo erectile function model, intracavernous pressure response to cavernous nerve stimulation; parameters: species or system rat; settings: 0.1-1 mg/kg i.v.; anesthetized rats
Description: The in vivo model on erectile function is described fully in the scientific literature (Rehman, J., Chenven, E., Brink, P. Peterson, B., Wolcott, B., Wen, Y. P., Melman, A., Christ, G.: Diminished neurogenic but not pharmacological erections in the 2- to 3-month experimentally diabetic F-344 rat. Am. J. Physiol. 272: H1960-H1971, 1997). Briefly, rats (250-600 g) were anesthetized using sodium pentobarbital, the abdomen opened and the cavernous nerve identified. A pressure catheter was placed in the right corpus cavernosum (crus) to measure intracavernous pressure (ICP). A second catheter was introduced into the carotid artery to measure blood pressure. Test compound (0.1, 0.3 and 1 mg/kg i.v.) or vehicle (PEG 400) was given via a catheter placed into the jugular vein.
Control intracavernous pressure responses were elicited by electrically stimulating the cavernous nerve via bipolar stimulating electrodes (20 Hz, 0.22 ms pulse width). Stimulus amplitude (0.2-20 mA) was adjusted to produce a submaximal intracavernous pressure response (typically 0.2 or 0.5 mA). A series of control intracavernous pressure responses were then obtained using a constant stimulus amplitude. Test compound or vehicle was then administered (200 μl i.v bolus) and the cavernous nerve was restimulated to evoke a cavernous pressure response at various times post-drug administration. […]

| Structure (SMILES) | BK Current, percent increase over BK current in controls [1] | reduction of cortical infarct volume [2] | melting point | ICP/BP responses elicited by sub-maximal stimulation of the cavernous nerve [3] |
| --- | --- | --- | --- | --- |
| COc1ccc(Cl)cc1-c1c(CCO)c(=O)[nH]c2ccc(C(F)(F)F)cc12 [Example 5, 4-(5-Chloro-2-methoxyphenyl)-3-(2-hydroxyethyl)-6-(trifluoromethyl)-2(1H)-quinolinone] | ++ (++ = >200%) | about 25% | 216 to 217 °C |  |
| O=c1[nH]c2ccc(C(F)(F)F)cc2c(-c2cc(Cl)ccc2O)c1CCO [Example 4, 4-(5-Chloro-2-hydroxyphenyl)-3-(2-hydroxyethyl)-6-(trifluoromethy)-2(1H)-quinolinone] | ++ (++ = >200%) |  |  | produced an augmentation of the ICP/BP responses |
